Tests used:
Assay in all cases: relative viability (nuclei count vs DMSO), 5 days (fraction); higher = more cells survive
NCI-H322M = system: NCI-H322M
In short: (§1)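 Lung cancer cell lines in 1536-well plates were dosed by pin tool the day after seeding, either with one drug alone or with a fixed anchor-drug dose plus five library-drug doses (not always all listed) in √10 steps. After 5 days, cells were fixed and their nuclei stained in one step (final 0.05% Triton X-100, 1% formaldehyde, 1 ug/ml Hoechst), then counted on 4× images. Relative viability is the nuclei count in treated wells divided by that in vehicle wells. Values are medians of duplicate plates.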

NCI-H727 = system: NCI-H727
In short: as §1

NCI-H2009 = system: NCI-H2009
In short: as §1

NCI-H1355 = system: NCI-H1355
In short: as §1

NCI-H23 = system: NCI-H23
In short: as §1

NCI-H650 = system: NCI-H650
In short: as §1

NCI-H2023 = system: NCI-H2023
In short: as §1

SK-MES-1 = system: SK-MES-1
In short: as §1

NCI-H2405 = system: NCI-H2405
In short: as §1

RERF-LC-KJ = system: RERF-LC-KJ
In short: as §1

LOU-NH91 = system: LOU-NH91
In short: as §1

HOP-62 = system: HOP-62
In short: as §1

NCI-H1437 = system: NCI-H1437
In short: as §1

NCI-H2085 = system: NCI-H2085
In short: as §1

LCLC-97TM1 = system: LCLC-97TM1
In short: as §1

HCC-78 = system: HCC-78
In short: as §1

NCI-H1792 = system: NCI-H1792
In short: as §1

ABC-1 = system: ABC-1
In short: as §1

UMC-11 = system: UMC-11
In short: as §1

NCI-H441 = system: NCI-H441
In short: as §1

NCI-H1755 = system: NCI-H1755
In short: as §1

`O=C(O)CCCCC(CCSCc1ccccc1)SCc1ccccc1` (centres undefined) [CPI-613] + C[C@]1(O)C[C@@H](c2nc(-c3ccc4ccc(-c5ccccc5)nc4c3)c3c(N)nccn32)C1 [Linsitinib] (partner 1 µM) gave a relative viability (NCI-H322M; first compound 5 µM) of 0.832, a relative viability (NCI-H322M; first compound 15.81 µM) of 0.721 and a relative viability (NCI-H322M; first compound 50 µM) of 0.931. It also gave a relative viability (NCI-H322M; first compound 158.11 µM) of 0.693, a relative viability (NCI-H322M; first compound 500 µM) of 0.634 and a relative viability (NCI-H727; first compound 5 µM) of 0.251. It also gave a relative viability (NCI-H727; first compound 15.81 µM) of 0.343, a relative viability (NCI-H727; first compound 50 µM) of 0.2 and a relative viability (NCI-H727; first compound 158.11 µM) of 0.216. For the same molecule, the relative viability (NCI-H727; first compound 500 µM) was 0.0496, the relative viability (NCI-H2009; first compound 5 µM) was 1.17 and the relative viability (NCI-H2009; first compound 15.81 µM) was 1.18. It also gave a relative viability (NCI-H2009; first compound 50 µM) of 1.18, a relative viability (NCI-H2009; first compound 158.11 µM) of 0.559 and a relative viability (NCI-H2009; first compound 500 µM) of 0.019. The relative viability (NCI-H1355; first compound 5 µM) was 0.78, the relative viability (NCI-H1355; first compound 15.81 µM) was 0.825 and the relative viability (NCI-H1355; first compound 50 µM) was 0.856. It also gave a relative viability (NCI-H1355; first compound 158.11 µM) of 0.477, a relative viability (NCI-H1355; first compound 500 µM) of 0.103 and a relative viability (NCI-H23; first compound 5 µM) of 0.596. It also gave a relative viability (NCI-H23; first compound 15.81 µM) of 0.567, a relative viability (NCI-H23; first compound 50 µM) of 0.395 and a relative viability (NCI-H23; first compound 158.11 µM) of 0.383. For the same molecule, the relative viability (NCI-H23; first compound 500 µM) was 0.0224, the relative viability (NCI-H650; first compound 5 µM) was 0.905 and the relative viability (NCI-H650; first compound 15.81 µM) was 0.807. It also gave a relative viability (NCI-H650; first compound 50 µM) of 0.975, a relative viability (NCI-H650; first compound 158.11 µM) of 0.746 and a relative viability (NCI-H650; first compound 500 µM) of 0.747. It also gave a relative viability (NCI-H2023; first compound 5 µM) of 0.614, a relative viability (NCI-H2023; first compound 15.81 µM) of 0.698 and a relative viability (NCI-H2023; first compound 50 µM) of 0.668. It also gave a relative viability (NCI-H2023; first compound 158.11 µM) of 0.243, a relative viability (NCI-H2023; first compound 500 µM) of 0.0069 and a relative viability (SK-MES-1; first compound 5 µM) of 1.08. It also gave a relative viability (SK-MES-1; first compound 15.81 µM) of 1.04, a relative viability (SK-MES-1; first compound 50 µM) of 1.03 and a relative viability (SK-MES-1; first compound 158.11 µM) of 0.863. For the same molecule, the relative viability (SK-MES-1; first compound 500 µM) was 0.988, the relative viability (NCI-H2405; first compound 5 µM) was 0.979 and the relative viability (NCI-H2405; first compound 15.81 µM) was 0.897. It also gave a relative viability (NCI-H2405; first compound 50 µM) of 0.895, a relative viability (NCI-H2405; first compound 158.11 µM) of 0.818 and a relative viability (NCI-H2405; first compound 500 µM) of 0.773. It also gave a relative viability (RERF-LC-KJ; first compound 5 µM) of 0.878, a relative viability (RERF-LC-KJ; first compound 15.81 µM) of 0.869 and a relative viability (RERF-LC-KJ; first compound 50 µM) of 0.887. The relative viability (RERF-LC-KJ; first compound 158.11 µM) was 0.87, the relative viability (RERF-LC-KJ; first compound 500 µM) was 0.885 and the relative viability (LOU-NH91; first compound 5 µM) was 0.918. The relative viability (LOU-NH91; first compound 15.81 µM) was 0.907, the relative viability (LOU-NH91; first compound 50 µM) was 1.06 and the relative viability (LOU-NH91; first compound 158.11 µM) was 0.971. It also gave a relative viability (LOU-NH91; first compound 500 µM) of 0.959, a relative viability (HOP-62; first compound 5 µM) of 1.05 and a relative viability (HOP-62; first compound 15.81 µM) of 1.05. The relative viability (HOP-62; first compound 50 µM) was 0.863, the relative viability (HOP-62; first compound 158.11 µM) was 0.611 and the relative viability (HOP-62; first compound 500 µM) was 0.0257. For the same molecule, the relative viability (NCI-H1437; first compound 5 µM) was 1.03, the relative viability (NCI-H1437; first compound 15.81 µM) was 0.902 and the relative viability (NCI-H1437; first compound 50 µM) was 0.916. It also gave a relative viability (NCI-H1437; first compound 158.11 µM) of 0.137, a relative viability (NCI-H1437; first compound 500 µM) of 0.0235 and a relative viability (NCI-H2085; first compound 5 µM) of 0.854. It also gave a relative viability (NCI-H2085; first compound 15.81 µM) of 0.759, a relative viability (NCI-H2085; first compound 50 µM) of 0.95 and a relative viability (NCI-H2085; first compound 158.11 µM) of 0.548. For the same molecule, the relative viability (NCI-H2085; first compound 500 µM) was 0.2, the relative viability (LCLC-97TM1; first compound 5 µM) was 0.186 and the relative viability (LCLC-97TM1; first compound 15.81 µM) was 0.167. It also gave a relative viability (LCLC-97TM1; first compound 50 µM) of 0.199, a relative viability (LCLC-97TM1; first compound 158.11 µM) of 0.16 and a relative viability (LCLC-97TM1; first compound 500 µM) of 0.0574. It also gave a relative viability (HCC-78; first compound 5 µM) of 0.48, a relative viability (HCC-78; first compound 15.81 µM) of 0.538 and a relative viability (HCC-78; first compound 158.11 µM) of 0.573. For the same molecule, the relative viability (HCC-78; first compound 500 µM) was 0.487, the relative viability (NCI-H1792; first compound 5 µM) was 0.514 and the relative viability (NCI-H1792; first compound 15.81 µM) was 0.49. It also gave a relative viability (NCI-H1792; first compound 50 µM) of 0.56, a relative viability (NCI-H1792; first compound 158.11 µM) of 0.411 and a relative viability (NCI-H1792; first compound 500 µM) of 0.512. It also gave a relative viability (ABC-1; first compound 5 µM) of 0.744, a relative viability (ABC-1; first compound 15.81 µM) of 1.02 and a relative viability (ABC-1; first compound 50 µM) of 0.815. For the same molecule, the relative viability (ABC-1; first compound 158.11 µM) was 0.254, the relative viability (ABC-1; first compound 500 µM) was 0.169 and the relative viability (UMC-11; first compound 5 µM) was 0.881. The relative viability (UMC-11; first compound 15.81 µM) was 1, the relative viability (UMC-11; first compound 50 µM) was 0.992 and the relative viability (UMC-11; first compound 158.11 µM) was 0.282. The relative viability (UMC-11; first compound 500 µM) was 0.0946, the relative viability (NCI-H441; first compound 5 µM) was 0.521 and the relative viability (NCI-H441; first compound 15.81 µM) was 0.59. It also gave a relative viability (NCI-H441; first compound 50 µM) of 0.605, a relative viability (NCI-H441; first compound 158.11 µM) of 0.255 and a relative viability (NCI-H441; first compound 500 µM) of 0.132. It also gave a relative viability (NCI-H1755; first compound 5 µM) of 0.991, a relative viability (NCI-H1755; first compound 15.81 µM) of 0.977 and a relative viability (NCI-H1755; first compound 50 µM) of 0.9. The relative viability (NCI-H1755; first compound 158.11 µM) was 0.888 and the relative viability (NCI-H1755; first compound 500 µM) was 0.152.

Source: the supplement of paper PMC10307832
